# In ChEMBL document CHEMBL3271998, “Quantitative structure-activity relationships among steroids. Investigations of the use of steric parameters” (1976):
# Test system: Oryctolagus cuniculus
# Assay: Progestational activity in immature rabbit assessed as proliferation of uterus administered intramuscularly by haematoxylin and eosin staining-based assay
# Type: functional
row,Compound,log(activity)
1,C=C1C[C@H]2[C@@H]3C=C(OC(C)=O)C4=CC(=O)CC[C@]4(C)[C@H]3CC[C@]2(C)[C@@]1(OC(C)=O)C(C)=O,-0.7
2,C=C1C[C@H]2[C@@H]3C=C(Cl)C4=CC(=O)CC[C@]4(C)[C@H]3CC[C@]2(C)[C@@]1(OC(C)=O)C(C)=O,1.89
3,C=C1C[C@H]2[C@@H]3C=C(F)C4=CC(=O)CC[C@]4(C)[C@H]3CC[C@]2(C)[C@@]1(OC(C)=O)C(C)=O,1.74
4,C=C1C[C@H]2[C@@H]3C=C(Br)C4=CC(=O)CC[C@]4(C)[C@H]3CC[C@]2(C)[C@@]1(OC(C)=O)C(C)=O,1.62
5,C=C1C[C@H]2[C@@H]3C=C(N=[N+]=[N-])C4=CC(=O)CC[C@]4(C)[C@H]3CC[C@]2(C)[C@@]1(OC(C)=O)C(C)=O,1.3
6,C=C1C[C@H]2[C@@H]3C=C(OC)C4=CC(=O)CC[C@]4(C)[C@H]3CC[C@]2(C)[C@@]1(OC(C)=O)C(C)=O,1.15
7,C=C1C[C@H]2[C@@H]3C=C(SC#N)C4=CC(=O)CC[C@]4(C)[C@H]3CC[C@]2(C)[C@@]1(OC(C)=O)C(C)=O,1.08
8,C=C1C[C@H]2[C@@H]3C=C(C(F)(F)F)C4=CC(=O)CC[C@]4(C)[C@H]3CC[C@]2(C)[C@@]1(OC(C)=O)C(C)=O,1.04
9,C=C1C[C@H]2[C@@H]3C=C(C#N)C4=CC(=O)CC[C@]4(C)[C@H]3CC[C@]2(C)[C@@]1(OC(C)=O)C(C)=O,0.78
10,C=C1C[C@H]2[C@@H]3C=C(OCC)C4=CC(=O)CC[C@]4(C)[C@H]3CC[C@]2(C)[C@@]1(OC(C)=O)C(C)=O,0
11,C=C1C[C@H]2[C@@H]3C=CC4=CC(=O)CC[C@]4(C)[C@H]3CC[C@]2(C)[C@@]1(OC(C)=O)C(C)=O,0
12,C=C1C[C@H]2[C@@H]3C=C(C=O)C4=CC(=O)CC[C@]4(C)[C@H]3CC[C@]2(C)[C@@]1(OC(C)=O)C(C)=O,0
13,C=C1C[C@H]2[C@@H]3C=C(NC(C)=O)C4=CC(=O)CC[C@]4(C)[C@H]3CC[C@]2(C)[C@@]1(OC(C)=O)C(C)=O,-1
14,C=C1C[C@H]2[C@@H]3C=C(C)C4=CC(=O)CC[C@]4(C)[C@H]3CC[C@]2(C)[C@@]1(OC(C)=O)C(C)=O [MELENGESTROL ACETATE],1.96
